# Measured values taken from patent US20250255981A1, “IMMUNOMODULATORY ANTIBODY-DRUG CONJUGATES” (Seagen Inc., priority 2022, published 2025).
# Test system: THP1-Dual™ cells (IRF-Lucia luciferase reporter)
# Test: THP1-Dual™ cell reporter assay
# Format: cell-based, human
# Settings: ADC: drug linker conjugated to targeted mAb, 48 h; some values average of multiple experiments
# Protocol: Potency of compounds and ADCs was evaluated using the THP1-Dual™ cells (Invivogen PN: thpd-nfis [also referred to as THP1 dual reporter cells]), which contain an IRF-Lucia luciferase reporter. Cells were cultured in RPMI-1640 (Gibco) with 10% heat-inactivated fetal bovine serum, Pen-Strep (100 U/mL-100 […], Gibco), HEPES (10 mM, Gibco)), sodium pyruvate (1 mM, Gibco), MEM non-essential amino acids (1×, Gibco), GlutaMAX (1×, Gibco), and beta-mercaptoethanol (55 μM, Gibco). Cells were plated in a 96-well flat bottom tissue culture-treated clear polystyrene plate (Corning Costar #3596) at ˜100,000 cells per well in 200 μL with the indicated concentration of the compound or ADC. The supernatant was harvested at 24 hours (compounds) or 48 hours (ADC) post plating for the reporter assay, or as indicated. To measure Lucia reporter signal, 10 µL of the supernatant was combined with 40 µL of QUANTI-Luc™ Luminescence assay reagent (Invivogen PN: rep-qlc1) in a 96-well clear flat bottom tissue culture-treated black polystyrene plate (Corning Costar #3603) and read on a Perkin Elmer Envision plate reader.
row,SMILES,"EC50, Lucia reporter signal"
1,"CCn1nc(C)cc1C(=O)Nc1nc2cc(S(N)(=O)=O)ccc2n1C/C=C/Cn1c(NC(=O)c2cc(C)nn2CC)nc2cc(C(N)=O)cc(OCCCN(C)C(=O)CCN3C(=O)C=CC3=O)c21 [Compound 25, (E)-7-(3-(3-(2,5-dioxo-2,5-dihydro-1H-pyrrol-1-yl)-N-methylpropanamido)propoxy)-2-(1-ethyl-3-methyl-1H-pyrazole-5-carboxamido)-1-(4-(2-(1-ethyl-3-methyl-1H-pyrazole-5-carboxamido)-5-sulfamoyl-1H-benzo[d]imidazol-1-yl)but-2-en-1-yl)-1H-benzo[d]imidazole-5-carboxamide]",307 ng/mL
2,"CCn1nc(C)cc1C(=O)Nc1nc2cc(C(N)=O)cc(OC)c2n1C/C=C/Cn1c(NC(=O)c2cc(C)nn2CC)nc2cc(C(N)=O)cc(OCCCN(C(=O)CCN3C(=O)C=CC3=O)C3CC3)c21 [compound 133, (E)-1-(4-(5-carbamoyl-2-(1-ethyl-3-methyl-1H-pyrazole-5-carboxamido)-7-methoxy-1H-benzo[d]imidazol-1-yl)but-2-en-1-yl)-7-(3-(N-cyclopropyl-3-(2,5-dioxo-2,5-dihydro-1H-pyrrol-1-yl)propanamido)propoxy)-2-(1-ethyl-3-methyl-1H-pyrazole-5-carboxamido)-1H-benzo[d]imidazole-5-carboxamide]",12.2 ng/mL
3,CCn1nc(C)cc1C(=O)Nc1nc2cc(C(N)=O)cc(OC)c2n1C/C=C/Cn1c(NC(=O)c2cc(C)nn2C)nc2cc(C(N)=O)cc(OCCCN(C)C(=O)CCN3C(=O)C=CC3=O)c21 [compound 105],52.5 ng/mL
4,CCn1nc(C)cc1C(=O)Nc1nc2cc(C(=O)OC)cc(OC)c2n1C/C=C/Cn1c(NC(=O)c2cc(C)nn2CC)nc2cc(C(=O)OC)cc(OCCCN(C)C(=O)OCc3ccc(O[C@@H]4O[C@H](C(=O)O)[C@@H](O)[C@H](O)[C@H]4O)cc3NC(=O)CCNC(=O)CCN3C(=O)C=CC3=O)c21 [compound 67],">10,000 ng/mL"
5,"CCn1nc(C)cc1C(=O)Nc1nc2cc(C(N)=O)cc(OC)c2n1C/C=C/Cn1c(NC(=O)c2cc(C)nn2CC)nc2cc(C(N)=O)cc(OCCCOC3CN(C(=O)CCN4C(=O)C=CC4=O)C3)c21 [Compound 27, (E)-1-(4-(5-carbamoyl-2-(1-ethyl-3-methyl-1H-pyrazole-5-carboxamido)-7-methoxy-1H-benzo[d]imidazol-1-yl)but-2-en-1-yl)-7-(3-((1-(3-(2,5-dioxo-2,5-dihydro-1H-pyrrol-1-yl)propanoyl)azetidin-3-yl)oxy)propoxy)-2-(1-ethyl-3-methyl-1H-pyrazole-5-carboxamido)-1H-benzo[d]imidazole-5-carboxamide]",10.4 ng/mL
6,CCn1nc(C)cc1C(=O)Nc1nc2cc(C(=O)O)cc(OC)c2n1C/C=C/Cn1c(NC(=O)c2cc(C)nn2CC)nc2cc(C(=O)O)cc(OCCCN(C)C(=O)OCc3ccc(O[C@@H]4O[C@H](C(=O)O)[C@@H](O)[C@H](O)[C@H]4O)cc3NC(=O)CCNC(=O)CCN3C(=O)C=CC3=O)c21 [compound 69],">10,000 ng/mL"
7,"CCn1nc(C)cc1C(=O)Nc1nc2cc(C(=O)O)cc(OC)c2n1C/C=C/Cn1c(NC(=O)c2cc(C)nn2CC)nc2cc(C(N)=O)cc(OCCCN(C)C(=O)CCN3C(=O)C=CC3=O)c21 [compound 126, (E)-1-(4-(5-carbamoyl-7-(3-(3-(2,5-dioxo-2,5-dihydro-1H-pyrrol-1-yl)-N-methylpropanamido)propoxy)-2-(1-ethyl-3-methyl-1H-pyrazole-5-carboxamido)-1H-benzo[d]imidazol-1-yl)but-2-en-1-yl)-2-(1-ethyl-3-methyl-1H-pyrazole-5-carboxamido)-7-methoxy-1H-benzo[d]imidazole-5-carboxylic acid]",">10,000 ng/mL"
8,"CCn1nc(C)cc1C(=O)Nc1nc2cc(C(N)=O)cc(OC)c2n1C/C=C/Cn1c(NC(=O)c2cc(C)nn2C)nc2cc(C(N)=O)cc(OCCC3CN(C(=O)CCN4C(=O)C=CC4=O)C3)c21 [compound 149, (E)-1-(4-(5-carbamoyl-2-(1,3-dimethyl-1H-pyrazole-5-carboxamido)-7-(2-(1-(3-(2,5-dioxo-2,5-dihydro-1H-pyrrol-1-yl)propanoyl)azetidin-3-yl)ethoxy)-1H-benzo[d]imidazol-1-yl)but-2-en-1-yl)-2-(1-ethyl-3-methyl-1H-pyrazole-5-carboxamido)-7-methoxy-1H-benzo[d]imidazole-5-carboxamide]",">10,000 ng/mL"
9,"CCn1nc(C)cc1C(=O)Nc1nc2cc(C(N)=O)cc(OC)c2n1C/C=C/Cn1c(NC(=O)c2cc(C)nn2CC)nc2cc(C(N)=O)cc(OCCCN(C)C(=O)[C@H](CC(=O)O)NC(=O)CCN3C(=O)C=CC3=O)c21 [Compound 17, (S,E)-4-((3-((5-carbamoyl-1-(4-(5-carbamoyl-2-(1-ethyl-3-methyl-1H-pyrazole-5-carboxamido)-7-methoxy-1H-benzo[d]imidazol-1-yl)but-2-en-1-yl)-2-(1-ethyl-3-methyl1H-pyrazole-5-carboxamido)-1H-benzo[d]imidazol-7-yl)oxy)propyl)(methyl)amino)-3-(3-(2,5-dioxo-2,5-dihydro-1H-pyrrol-1-yl)propanamido)-4-oxobutanoic acid]",2.2 ng/mL
10,CCn1nc(C)cc1C(=O)Nc1nc2cc(C(N)=O)cc(OC)c2n1C/C=C/Cn1c(NC(=O)c2ccnn2CC)nc2cc(C(N)=O)cc(OCCCN(C)C(=O)CCN3C(=O)C=CC3=O)c21 [compound 108],63.5 ng/mL
11,"CCn1nc(C)cc1C(=O)Nc1nc2cc(C(N)=O)cc(OC)c2n1C/C=C/Cn1c(NC(=O)c2cc(C)nn2CC)nc2cc(C(N)=O)cc(OCCC3CN(C(=O)CCN4C(=O)C=CC4=O)C3)c21 [Compound 26, (E)-1-(4-(5-carbamoyl-2-(1-ethyl-3-methyl-1H-pyrazole-5-carboxamido)-7-methoxy-1H-benzo[d]imidazol-1-yl)but-2-en-1-yl)-7-(2-(1-(3-(2,5-dioxo-2,5-dihydro-1H-pyrrol-1-yl)propanoyl)azetidin-3-yl)ethoxy)-2-(1-ethyl-3-methyl-1H-pyrazole-5-carboxamido)-1H-benzo[d]imidazole-5-carboxamide]",14.4 ng/mL
12,CCn1nc(C)cc1C(=O)Nc1nc2cc(C(N)=O)cc(OC)c2n1C/C=C/Cn1c(NC(=O)c2ncccn2)nc2cc(C(N)=O)cc(OCCCN(C)C(=O)CCN3C(=O)C=CC3=O)c21 [compound 101],">10,000 ng/mL"
13,CCn1nc(C)cc1C(=O)Nc1nc2cc(C(N)=O)cc(OC)c2n1C/C=C/Cn1c(NC(=O)c2cc(C)nn2CC)nc2cc(C(N)=O)cc(OCCCN(C)C(=O)[C@H](Cc3ccccc3)NC(=O)CCN3C(=O)C=CC3=O)c21 [compound 122],5.6 ng/mL
14,"CCn1nc(C)cc1C(=O)Nc1nc2cc(S(N)(=O)=O)ccc2n1C/C=C/Cn1c(NC(=O)c2cc(C)nn2CC)nc2cc(C(N)=O)cc(OCCCOC3CN(C(=O)CCN4C(=O)C=CC4=O)C3)c21 [compound 146, (E)-7-(3-((1-(3-(2,5-dioxo-2,5-dihydro-1H-pyrrol-1-yl)propanoyl)azetidin-3-yl)oxy)propoxy)-2-(1-ethyl-3-methyl-1H-pyrazole-5-carboxamido)-1-(4-(2-(1-ethyl-3-methyl-1H-pyrazole-5-carboxamido)-5-sulfamoyl-1H-benzo[d]imidazol-1-yl)but-2-en-1-yl)-1H-benzo[d]imidazole-5-carboxamide]",">10,000 ng/mL"
15,CCn1nc(C)cc1C(=O)Nc1nc2cc(C(N)=O)cc(OC)c2n1C/C=C/Cn1c(NC(=O)c2cc(C)nn2CC)nc2cc(C(N)=O)cc(OCCCN(C)C(=O)[C@H](Cc3ccc(OC)cc3)NC(=O)CCN3C(=O)C=CC3=O)c21 [compound 124],9.1 ng/mL
16,CCc1oc(C)cc1C(=O)Nc1nc2cc(C(N)=O)cc(OCCCN(C)C(=O)CCN3C(=O)C=CC3=O)c2n1C/C=C/Cn1c(NC(=O)c2cc(C)nn2CC)nc2cc(C(N)=O)cc(OC)c21 [compound 106],">10,000 ng/mL"
17,CCn1nc(C)cc1C(=O)Nc1nc2cc(C(N)=O)cc(OC)c2n1C/C=C/Cn1c(NC(=O)c2c(C)cnn2C)nc2cc(C(N)=O)cc(OCCCN(C)C(=O)CCN3C(=O)C=CC3=O)c21 [compound 110],">10,000 ng/mL"

# Same assay, conditions: Homo sapiens, THP1-Dual; small molecules, 24 h; >10,000 nM = minimal activity up to 10 μM; some values average of multiple experiments; read-out: EC50, Lucia reporter signal
row,EC50 [nM],SMILES
1,275,CCn1nc(C)cc1C(=O)Nc1nc2cc(C(N)=O)cc(OC)c2n1C/C=C/Cn1c(NC(=O)c2cc(C)nn2CC)nc2cc(C(N)=O)cc(OCCCN(C)C(=O)[C@H](CC(=O)OC)NC(=O)CCN3C(=O)CC(SC[C@H](N)C(=O)O)C3=O)c21 (stereo partly shown) [compound 72]

# Same assay, conditions: drug linker conjugated to targeted mAb, 48 h
row,SMILES,"relative potency / activity of ADC, Lucia reporter"
1,CCn1nc(C)cc1C(=O)Nc1nc2cc(C(N)=O)cc(OC)c2n1C/C=C/Cn1c(NC(=O)c2cc(C)nn2CC)nc2cc(C(N)=O)cc(OCCCN(C)C(=O)OCc3ccc(O[C@@H]4O[C@H](C(=O)O)[C@@H](O)[C@H](O)[C@H]4O)cc3NC(=O)CCNC(=O)CCN3C(=O)C=CC3=O)c21 [compound 13],more potent when conjugated to a targeted mAb via a cleavable glucuronide linker (13) than the similar compound 1 conjugate (11)
